The values that follow come from ChEMBL document CHEMBL1697731, “Cheminformatics analysis of assertions mined from literature that describe drug-induced liver injury in different species” (Chem Res Toxicol, 2010).

For data set [1], the system named is Hepatotoxicity. Description: Literature-mined compound from Fourches et al multi-species drug-induced liver injury (DILI) dataset, effect in humans. The note with it: human.
Data set [2] concerns Hepatotoxicity. Description: Literature-mined compound from Fourches et al multi-species drug-induced liver injury (DILI) dataset, effect in non-rodents.
Data set [3] deals with Hepatotoxicity. Description: Literature-mined compound from Fourches et al multi-species drug-induced liver injury (DILI) dataset, effect in rodents. The settings on record: rodentia.

Consider `COc1cc2nc(N(C)CCCNC(=O)C3CCCO3)nc(N)c2cc1OC` (configuration not stated) [ALFUZOSIN], for which the Hepatotoxicity result is given as “drug-induced liver injury reported” in data set [1], “no drug-induced liver injury reported” in data set [2] and “no drug-induced liver injury reported” in data set [3].

As for `Nc1ccc(S(=O)(=O)Nc2ccccn2)cc1` [SULFAPYRIDINE], the Hepatotoxicity entry was “no drug-induced liver injury reported” in data set [1], “no drug-induced liver injury reported” in data set [2] and “drug-induced liver injury reported” in data set [3].

For the compound `O=C(OCC(O)CO)c1ccccc1Nc1ccnc2cc(Cl)ccc12` (configuration not stated) [GLAFENINE], the results for the Hepatotoxicity result in data set [1] (Liver), in data set [2] (Liver) and in data set [3] (Liver) were “drug-induced liver injury reported”, “no drug-induced liver injury reported” and “no drug-induced liver injury reported”, respectively.

For `Nc1cc(N2CCCCC2)nc(N)[n+]1[O-]` [MINOXIDIL], the Hepatotoxicity entry in data set [1] was “drug-induced liver injury reported”; in data set [2], “no drug-induced liver injury reported”; in data set [3], “drug-induced liver injury reported”.

Take `Cn1c(=O)c2[nH]cnc2n(C)c1=O.Cn1c(=O)c2[nH]cnc2n(C)c1=O.NCCN` [AMINOPHYLLINE]: the figures for the Hepatotoxicity entry in data set [1], in data set [2] and in data set [3] were “drug-induced liver injury reported”, “no drug-induced liver injury reported” and “drug-induced liver injury reported”, respectively.

Turning to `CCN(CC)CC(=O)Nc1c(C)cccc1C` [LIDOCAINE], the Hepatotoxicity entry in data set [1] (Liver), in data set [2] (Liver) and in data set [3] (Liver) was “drug-induced liver injury reported” in each case.

As for `Clc1ccc(C(c2ccc(Cl)cc2)C(Cl)(Cl)Cl)cc1` [CHLOROPHENOTHANE], the Hepatotoxicity entry was “no drug-induced liver injury reported” in data set [1], “no drug-induced liver injury reported” in data set [2] and “drug-induced liver injury reported” in data set [3].

On to `Nc1ncn([C@@H]2O[C@H](CO)[C@@H](O)[C@H]2O)c(=O)n1` [AZACITIDINE], for which the figures for the Hepatotoxicity result in data set [1] (Liver), in data set [2] (Liver) and in data set [3] (Liver) were “drug-induced liver injury reported”, “no drug-induced liver injury reported” and “drug-induced liver injury reported”, respectively.

As to `N[C@@H](Cc1cc(I)c(Oc2ccc(O)c(I)c2)c(I)c1)C(=O)O` [LIOTHYRONINE], the values for the Hepatotoxicity result in data set [1], in data set [2] and in data set [3] were “drug-induced liver injury reported”, “no drug-induced liver injury reported” and “drug-induced liver injury reported”, respectively.

With `CC/C(=C(\c1ccc(I)cc1)c1ccc(OCCN2CCCC2)cc1)c1ccccc1` [IDOXIFENE], the Hepatotoxicity result is on record as “no drug-induced liver injury reported” in data set [1], “no drug-induced liver injury reported” in data set [2] and “drug-induced liver injury reported” in data set [3].

For `O=C1CN(/N=C/c2ccc(-c3ccc([N+](=O)[O-])cc3)o2)C(=O)[N-]1.[Na+]` [DANTROLENE SODIUM], the results for the Hepatotoxicity entry in data set [1], in data set [2] and in data set [3] were “no drug-induced liver injury reported”, “no drug-induced liver injury reported” and “drug-induced liver injury reported”, respectively.

For the compound `O=S(=O)([O-])CCS.[Na+]` [MESNA], the values for the Hepatotoxicity entry in data set [1], in data set [2] and in data set [3] were “no drug-induced liver injury reported”, “no drug-induced liver injury reported” and “drug-induced liver injury reported”, respectively.

Take `Nc1ncnc2c1ncn2[C@@H]1O[C@H](CO)[C@@H](O)[C@@H]1O` [VIDARABINE]: the figures for the Hepatotoxicity entry in data set [1], in data set [2] and in data set [3] were “drug-induced liver injury reported”, “no drug-induced liver injury reported” and “drug-induced liver injury reported”, respectively.

`CC(=O)N[C@@H](CS)C(=O)O` [ACETYLCYSTEINE]: the Hepatotoxicity entry in data set [1] is listed as “drug-induced liver injury reported”; in data set [2], “no drug-induced liver injury reported”; in data set [3], “drug-induced liver injury reported”.

On to `CCCCc1oc2ccccc2c1C(=O)c1cc(I)c(OCCN(CC)CC)c(I)c1` [AMIODARONE], for which the Hepatotoxicity result in data set [1] (Liver), in data set [2] (Liver) and in data set [3] (Liver) was “drug-induced liver injury reported” in each case.

Consider `C[C@@H]1CC(=O)NN=C1c1ccc(NN=C(C#N)C#N)cc1` [LEVOSIMENDAN], for which the Hepatotoxicity entry in data set [1] is recorded as “no drug-induced liver injury reported”; in data set [2], “drug-induced liver injury reported”; in data set [3], “no drug-induced liver injury reported”.

For the compound `CC(C)NNC(=O)c1ccncc1` [IPRONIAZID], the Hepatotoxicity entry in data set [1] is given as “drug-induced liver injury reported”; in data set [2], “no drug-induced liver injury reported”; in data set [3] it was “drug-induced liver injury reported”.

Consider `CC1(C)CC(=O)N(CCCCN2CCN(c3ncccn3)CC2)C(=O)C1` [GEPIRONE], for which the Hepatotoxicity result in data set [1] was “drug-induced liver injury reported”; in data set [2], “no drug-induced liver injury reported”; in data set [3] it was “no drug-induced liver injury reported”.

For the compound `CCOC(=O)c1ncn2c1CN(C)C(=O)c1cc(F)ccc1-2` [FLUMAZENIL], the Hepatotoxicity entry in data set [1] is recorded as “drug-induced liver injury reported”; in data set [2] it was “no drug-induced liver injury reported”; in data set [3], “no drug-induced liver injury reported”.

With `Cc1c(C(=O)NN2CCCCC2)nn(-c2ccc(Cl)cc2Cl)c1-c1ccc(Cl)cc1` [RIMONABANT], the Hepatotoxicity entry in data set [1] is reported as “no drug-induced liver injury reported”; in data set [2] it was “no drug-induced liver injury reported”; in data set [3] it was “drug-induced liver injury reported”.

For the compound `CC[C@@]1(O)C(=O)OCc2c1cc1n(c2=O)Cc2cc3ccccc3nc2-1` [CAMPTOTHECIN], the Hepatotoxicity entry in data set [1] is on record as “drug-induced liver injury reported”; in data set [2], “no drug-induced liver injury reported”; in data set [3], “drug-induced liver injury reported”.

As for `CC[C@H](c1ccc(O)cc1)[C@@H](CC)c1ccc(O)cc1` [HEXESTROL], the Hepatotoxicity result was “no drug-induced liver injury reported” in data set [1], “no drug-induced liver injury reported” in data set [2] and “drug-induced liver injury reported” in data set [3].

In the case of `CC(C)C(=O)Nc1ccc([N+](=O)[O-])c(C(F)(F)F)c1` [FLUTAMIDE], the Hepatotoxicity entry is on record as “drug-induced liver injury reported” in data set [1], “no drug-induced liver injury reported” in data set [2] and “drug-induced liver injury reported” in data set [3].

Take `CCC(=C(c1ccc(O)cc1)c1ccc(OCCN(C)C)cc1)c1ccccc1`: the Hepatotoxicity entry in data set [1] is on record as “drug-induced liver injury reported”; in data set [2], “no drug-induced liver injury reported”; in data set [3], “drug-induced liver injury reported”.

For `CN1CCN2c3ccccc3Cc3ccccc3C2C1` (configuration not stated) [MIANSERIN], the Hepatotoxicity entry is recorded as “drug-induced liver injury reported” in data set [1], “no drug-induced liver injury reported” in data set [2] and “drug-induced liver injury reported” in data set [3].

As to `CO[C@H]1/C=C/O[C@@]2(C)Oc3c(C)c(O)c4c(c3C2=O)C2=NC3(CCN(CC(C)C)CC3)NC2=C(NC(=O)/C(C)=C\C=C\[C@H](C)[C@H](O)[C@@H](C)[C@@H](O)[C@@H](C)[C@H](OC(C)=O)[C@@H]1C)C4=O` [RIFABUTIN], the Hepatotoxicity result in data set [1] (Liver) is on record as “drug-induced liver injury reported”; in data set [2] (Liver), “no drug-induced liver injury reported”; in data set [3] (Liver), “drug-induced liver injury reported”.

Take `CC(C)(Oc1ccc(C2CC2(Cl)Cl)cc1)C(=O)O` (configuration not stated) [CIPROFIBRATE]: the Hepatotoxicity result in data set [1], in data set [2] and in data set [3] was “drug-induced liver injury reported” each time.

With `CCCC(=O)Nc1ccc(OCC(O)CNC(C)C)c(C(C)=O)c1` (configuration not stated) [ACEBUTOLOL], the results for the Hepatotoxicity result in data set [1], in data set [2] and in data set [3] were “drug-induced liver injury reported”, “no drug-induced liver injury reported” and “drug-induced liver injury reported”, respectively.

With `C#CC1(O)CC[C@H]2[C@@H]3CCC4=CC(=O)CC[C@@H]4[C@H]3CC[C@@]21CC` (some centres not stated) [NORGESTREL], the results for the Hepatotoxicity entry in data set [1] (Liver), in data set [2] (Liver) and in data set [3] (Liver) were “drug-induced liver injury reported”, “no drug-induced liver injury reported” and “drug-induced liver injury reported”, respectively.

Take `Cc1cn([C@H]2C[C@H](N=[N+]=[N-])[C@@H](CO)O2)c(=O)[nH]c1=O` [ZIDOVUDINE]: the Hepatotoxicity result in data set [1] was “drug-induced liver injury reported”; in data set [2], “no drug-induced liver injury reported”; in data set [3], “drug-induced liver injury reported”.

For `Cc1cc(NS(=O)(=O)c2ccc(N)cc2)no1` [SULFAMETHOXAZOLE], the results for the Hepatotoxicity entry in data set [1] (Liver), in data set [2] (Liver) and in data set [3] (Liver) were “drug-induced liver injury reported”, “no drug-induced liver injury reported” and “no drug-induced liver injury reported”, respectively.

As to PORFIMER SODIUM, the Hepatotoxicity entry is on record as “no drug-induced liver injury reported” in data set [1], “no drug-induced liver injury reported” in data set [2] and “drug-induced liver injury reported” in data set [3].

For `FCOC(C(F)(F)F)C(F)(F)F` [SEVOFLURANE], the figures for the Hepatotoxicity result in data set [1], in data set [2] and in data set [3] were “drug-induced liver injury reported”, “no drug-induced liver injury reported” and “drug-induced liver injury reported”, respectively.

Consider `CNCC(O)c1ccc(O)cc1` (configuration not stated) [OXEDRINE], for which the values for the Hepatotoxicity result in data set [1], in data set [2] and in data set [3] were “no drug-induced liver injury reported”, “no drug-induced liver injury reported” and “drug-induced liver injury reported”, respectively.
